# According to publication PMC11200585, “Prospects for Prostate Cancer Chemotherapy: Cytotoxic Evaluation and Mechanistic Insights of Quinolinequinones with ADME/PK Profile” (Biomedicines, 2024):
# Experiments:
# Type in all cases: cell-based, human
# TK-10 = test: NCI-60 five-dose assay (renal cancer); conditions: 48 h, SRB
# NCI-H23 = test: NCI-60 five-dose assay (non-small cell lung cancer); conditions: 48 h, SRB
# K-562 [1] = test: NCI-60 five-dose assay (leukemia); conditions: SRB
# SW-620 = test: NCI-60 five-dose assay (colon cancer); conditions: 48 h, SRB
# K-562 [2] = test: NCI-60 one-dose screen (leukemia); conditions: 10 µM single dose, 48 h
# Protocol: (§1) The obtained quinolinequinones were submitted to NCI, Bethesda, USA, and, as per standard protocol of NCI, all compounds were evaluated for their antiproliferative activity at single-dose assay (10 µM concentration in DMSO) on a panel of 60 cancer cell lines derived from leukemia, non-small-cell lung, colon, CNS, melanoma, ovarian, renal, prostate, and breast, as per protocol. Tested compounds were added to the microtiter culture plates followed by incubation for 48 h at 37 °C. Sulforhodamine B (SRB), a protein-binding dye, is used for endpoint determination. The percent of the growth of the treated cells was determined in comparison to the untreated control cells and the results of each tested compound were reported. Data from one-dose experiments pertain to the percentage growth at 10 μM [16, 17, 18].
# SR [3] = test: NCI-60 one-dose screen (leukemia); conditions: 10 µM single dose, 48 h
# Protocol: as §1
# RPMI-8226 = test: NCI-60 one-dose screen (leukemia); conditions: 10 µM single dose, 48 h
# Protocol: as §1
# MOLT-4 = test: NCI-60 one-dose screen (leukemia); conditions: 10 µM single dose, 48 h
# Protocol: as §1
# CCRF-CEM [4] = test: NCI-60 one-dose screen (leukemia); conditions: 10 µM single dose, 48 h
# Protocol: as §1
# HL-60(TB) = test: NCI-60 one-dose screen (leukemia); conditions: 10 µM single dose, 48 h
# Protocol: as §1
# OVCAR-8 = test: NCI-60 five-dose assay (ovarian cancer); conditions: 48 h, SRB
# SNB-19 = test: NCI-60 one-dose screen (CNS cancer); conditions: 10 µM single dose, 48 h
# Protocol: as §1
# SF-295 = test: NCI-60 one-dose screen (CNS cancer); conditions: 10 µM single dose, 48 h
# Protocol: as §1
# SF-268 = test: NCI-60 one-dose screen (CNS cancer); conditions: 10 µM single dose, 48 h
# Protocol: as §1
# U251 = test: NCI-60 one-dose screen (CNS cancer); conditions: 10 µM single dose, 48 h
# Protocol: as §1
# SNB-75 = test: NCI-60 one-dose screen (CNS cancer); conditions: 10 µM single dose, 48 h
# Protocol: as §1
# SF-539 = test: NCI-60 one-dose screen (CNS cancer); conditions: 10 µM single dose
# Protocol: as §1
# MDA-MB-468 [5] = test: NCI-60 five-dose assay (breast cancer); conditions: 48 h, SRB
# BT-549 = test: NCI-60 one-dose screen (breast cancer); conditions: 10 µM single dose, 48 h
# Protocol: as §1
# T-47D [6] = test: NCI-60 one-dose screen (breast cancer); conditions: 10 µM single dose, 48 h
# Protocol: as §1
# MCF7 = test: NCI-60 one-dose screen (breast cancer); conditions: 10 µM single dose, 48 h
# Protocol: as §1
# HS 578T [7] = test: NCI-60 one-dose screen (breast cancer); conditions: 10 µM single dose, 48 h
# Protocol: as §1
# MDA-MB-468 [8] = test: NCI-60 one-dose screen (breast cancer); conditions: 10 µM single dose, 48 h
# Protocol: as §1
# MDA-MB-231/ATCC = test: NCI-60 one-dose screen (breast cancer); conditions: 10 µM single dose, 48 h
# Protocol: as §1
# DU-145 [9] = test: NCI-60 five-dose assay (prostate cancer); conditions: 48 h, SRB
# T-47D [10] = test: NCI-60 five-dose assay (breast cancer); conditions: Homo sapiens, T47D, 48 h, SRB
# CCRF-CEM [11] = test: NCI-60 five-dose assay (leukemia); conditions: 48 h, SRB
# OVCAR-4 = test: NCI-60 five-dose assay (ovarian cancer); conditions: 48 h, SRB
# SR [12] = test: NCI-60 five-dose assay (leukemia); conditions: 48 h, SRB
# UACC-62 = test: NCI-60 five-dose assay (melanoma); conditions: 48 h, SRB
# LOX IMVI = test: NCI-60 five-dose assay (melanoma); conditions: 48 h, SRB
# NCI-H322M = test: NCI-60 five-dose assay (non-small cell lung cancer); conditions: 48 h, SRB
# A498 = test: NCI-60 five-dose assay (renal cancer); conditions: 48 h, SRB
# DU-145 [13] = test: NCI-60 one-dose screen (prostate cancer); conditions: 10 µM single dose, 48 h
# Protocol: as §1
# PC-3 = test: NCI-60 one-dose screen (prostate cancer); conditions: 10 µM single dose
# Protocol: as §1
# SK-MEL-5 = test: NCI-60 five-dose assay (melanoma); conditions: 48 h, SRB
# OVCAR-5 = test: NCI-60 five-dose assay (ovarian cancer); conditions: 48 h, SRB
# HS 578T [14] = test: NCI-60 five-dose assay (breast cancer); conditions: 48 h, SRB
# [15] = Homo sapiens, read-out: LC50 (the source's name)
structure (smiles),measurement,setting,value
COc1ccccc1NC1=C(Cl)C(=O)c2nc(C)ccc2C1=O [AQQ1],TGI,TK-10,3.86 µM
same,GI50,TK-10; Homo sapiens,2.34 µM
same,LC50 (concentration killing 50% of starting cells),TK-10; Homo sapiens,6.36 µM
same,TGI,NCI-H23,3.30 µM
same,GI50,NCI-H23; Homo sapiens,1.47 µM
same,CC50,NCI-H23; [15],7.45 µM
same,TGI,K-562 [1]; 48 h,2.94 µM
same,GI50,"K-562 [1]; Homo sapiens, K562, 48 h",0.29 µM
same,LC50,"K-562 [1]; Homo sapiens, K562, 48 h",> 100 µM
same,TGI,SW-620,3.73 µM
same,GI50,SW-620; Homo sapiens,1.84 µM
same,LC50,SW-620; Homo sapiens,7.56 µM
same,GP (growth percentage),K-562 [2],−21.12%
same,GP (growth percentage),SR [3],−27.92%
same,GP (growth percentage),RPMI-8226,−30.44%
same,GP (growth percentage),MOLT-4,−39.00%
same,GP (growth percentage),CCRF-CEM [4],−4.94%
same,GP (growth percentage),HL-60(TB),−48.05%
same,TGI,OVCAR-8,3.25 µM
same,GI50,OVCAR-8; Homo sapiens,1.61 µM
same,CC50,OVCAR-8; [15],6.59 µM
same,GP (growth percentage),SNB-19,38.92%
same,GP (growth percentage),SF-295,96.61%
same,GP (growth percentage),SF-268,47.42%
same,GP (growth percentage),U251,62.79%
same,GP (growth percentage),SNB-75,105.38%
same,GP (growth percentage),SF-539; 48 h,1.78%
same,inhibition at 10 µM,SF-539; Homo sapiens,98.2%
same,TGI,MDA-MB-468 [5],3.06 µM
same,GI50,MDA-MB-468 [5]; Homo sapiens,1.52 µM
same,LC50,MDA-MB-468 [5]; Homo sapiens,6.16 µM
same,GP (growth percentage),BT-549,83.54%
same,GP (growth percentage),T-47D [6],−44.73%
same,GP (growth percentage),MCF7,−60.38%
same,GP (growth percentage),HS 578T [7],72.15%
same,GP (growth percentage),MDA-MB-468 [8],−79.74%
same,GP (growth percentage),MDA-MB-231/ATCC,−57.30%
same,TGI,DU-145 [9],3.11 µM
same,GI50,DU-145 [9]; Homo sapiens,1.72 µM
same,CC50,DU-145 [9]; [15],5.62 µM
same,GI50,T-47D [10],1.37 µM
same,CC50,T-47D [10]; read-out: LC50 (the source's name),> 100 µM
same,TGI,CCRF-CEM [11],8.21 µM
same,GI50,CCRF-CEM [11]; Homo sapiens,1.94 µM
same,LC50 (concentration killing 50% of cells),CCRF-CEM [11]; Homo sapiens,> 100 µM
same,TGI,OVCAR-4,2.49 µM
same,GI50,OVCAR-4; Homo sapiens,1.21 µM
same,LC50 (concentration killing 50% of cells),OVCAR-4; Homo sapiens,5.11 µM
same,TGI,SR [12],4.25 µM
same,GI50,SR [12]; Homo sapiens,0.794 µM
same,CC50,SR [12]; [15],> 100 µM
same,TGI,UACC-62,3.37 µM
same,GI50,UACC-62; Homo sapiens,1.82 µM
same,LC50 (concentration killing 50% of cells),UACC-62; Homo sapiens,6.25 µM
same,TGI,LOX IMVI,2.36 µM
same,GI50,LOX IMVI; Homo sapiens,0.952 µM
same,LC50 (concentration killing 50% of cells),LOX IMVI; Homo sapiens,5.7 µM
same,TGI,NCI-H322M,7.69 µM
same,GI50,NCI-H322M; Homo sapiens,2.5 µM
same,CC50,NCI-H322M; [15],27.6 µM
same,TGI,A498,4.60 µM
same,GI50,A498; Homo sapiens,1.9 µM
same,LC50,A498; Homo sapiens,13.1 µM
same,GP (growth percentage),DU-145 [13],−57.26%
same,GP (growth percentage),PC-3; 48 h,27.39%
same,inhibition at 10 µM,PC-3; Homo sapiens,72.6%
same,TGI,SK-MEL-5,3.17 µM
same,GI50,SK-MEL-5; Homo sapiens,1.75 µM
same,CC50,SK-MEL-5; [15],5.74 µM
same,TGI,OVCAR-5,3.42 µM
same,GI50,OVCAR-5; Homo sapiens,1.86 µM
same,LC50 (lethal concentration 50%),OVCAR-5; Homo sapiens,6.29 µM
same,TGI,HS 578T [14],5.64 µM
same,GI50,HS 578T [14]; Homo sapiens,2.27 µM
same,CC50,HS 578T [14]; [15],> 100 µM
